Residues, ends and D or L forms follow the SMILES beside them.
Key:
ADP-stimulated platelets = ADP-stimulated platelets (Homo sapiens, UniProt P05106+P08514); test: Inhibition of 125I-fibrinogen binding to ADP-stimulated platelets; settings: for Extent of inhibition of fibrinogen binding to platelets: high concentrations of peptide; for IC50: read-out: IC50 Platelets (Table III), mean of three separate experiments
endothelial cells [1] = biological target: T1, endothelial cells (UniProt P05106+P06756); test: Inhibition of 125I-fibrinogen binding to endothelial cells in suspension; parameters: species or system human; settings: for Extent of inhibition of fibrinogen binding to endothelial cells: high concentrations of peptide
washed platelets = test: Fibrinogen-dependent aggregation of washed platelets; assay type: cell-based, human; settings: 2 mM peptide, 20 μM ADP, medium 199
endothelial cells [2] = biological target: T1, endothelial cells; test: Endothelial cell spreading on fibrinogen; assay type: cell-based, human; settings: 2 mM peptide, medium 199, 2% BSA

T1 sequence (P06756 31-1048): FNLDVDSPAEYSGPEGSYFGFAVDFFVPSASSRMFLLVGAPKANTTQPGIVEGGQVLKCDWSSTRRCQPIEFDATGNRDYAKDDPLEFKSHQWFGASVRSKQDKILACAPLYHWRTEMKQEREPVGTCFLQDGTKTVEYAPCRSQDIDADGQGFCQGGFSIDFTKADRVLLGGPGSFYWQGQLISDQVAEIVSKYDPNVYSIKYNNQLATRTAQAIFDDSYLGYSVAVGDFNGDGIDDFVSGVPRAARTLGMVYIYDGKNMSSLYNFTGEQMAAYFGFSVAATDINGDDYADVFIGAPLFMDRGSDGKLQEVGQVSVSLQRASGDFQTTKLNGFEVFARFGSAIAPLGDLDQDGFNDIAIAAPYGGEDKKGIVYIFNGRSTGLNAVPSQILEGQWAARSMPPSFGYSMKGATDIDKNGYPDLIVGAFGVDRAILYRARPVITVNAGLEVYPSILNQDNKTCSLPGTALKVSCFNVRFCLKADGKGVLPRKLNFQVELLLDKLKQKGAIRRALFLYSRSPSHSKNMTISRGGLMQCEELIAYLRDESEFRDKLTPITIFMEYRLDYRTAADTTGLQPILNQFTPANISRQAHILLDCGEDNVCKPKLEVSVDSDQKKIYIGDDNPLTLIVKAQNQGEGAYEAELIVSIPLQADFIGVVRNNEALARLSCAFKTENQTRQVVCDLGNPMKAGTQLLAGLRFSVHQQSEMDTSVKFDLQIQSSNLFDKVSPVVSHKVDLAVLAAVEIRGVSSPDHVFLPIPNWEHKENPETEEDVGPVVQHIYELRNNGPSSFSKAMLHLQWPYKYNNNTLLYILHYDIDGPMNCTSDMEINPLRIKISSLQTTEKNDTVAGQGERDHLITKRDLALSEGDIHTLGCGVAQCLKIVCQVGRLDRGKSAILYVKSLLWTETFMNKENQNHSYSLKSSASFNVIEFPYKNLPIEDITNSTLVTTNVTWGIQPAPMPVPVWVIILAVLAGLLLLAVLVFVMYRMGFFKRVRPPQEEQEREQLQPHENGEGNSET
T1 sequence (P05106 27-788): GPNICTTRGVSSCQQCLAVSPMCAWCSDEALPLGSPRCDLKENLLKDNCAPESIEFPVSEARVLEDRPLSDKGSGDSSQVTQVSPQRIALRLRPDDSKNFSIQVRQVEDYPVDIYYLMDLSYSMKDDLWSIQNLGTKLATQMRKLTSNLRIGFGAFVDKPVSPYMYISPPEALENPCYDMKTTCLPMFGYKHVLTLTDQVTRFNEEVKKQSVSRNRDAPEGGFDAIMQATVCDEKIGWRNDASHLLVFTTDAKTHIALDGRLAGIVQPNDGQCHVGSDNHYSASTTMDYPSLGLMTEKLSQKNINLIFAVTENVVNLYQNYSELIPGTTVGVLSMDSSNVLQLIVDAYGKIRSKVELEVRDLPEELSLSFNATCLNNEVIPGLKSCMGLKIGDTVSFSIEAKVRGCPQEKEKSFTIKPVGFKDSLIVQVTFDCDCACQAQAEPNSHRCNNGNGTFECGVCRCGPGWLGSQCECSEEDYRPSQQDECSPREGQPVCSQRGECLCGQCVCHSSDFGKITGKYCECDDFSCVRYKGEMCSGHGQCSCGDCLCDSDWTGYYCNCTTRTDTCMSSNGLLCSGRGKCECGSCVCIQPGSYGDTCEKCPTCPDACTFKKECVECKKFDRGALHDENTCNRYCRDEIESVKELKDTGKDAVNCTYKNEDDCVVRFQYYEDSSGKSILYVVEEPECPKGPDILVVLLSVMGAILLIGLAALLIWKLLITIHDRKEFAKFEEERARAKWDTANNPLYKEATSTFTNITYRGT
T1 sequence (P02671 36-866 partner): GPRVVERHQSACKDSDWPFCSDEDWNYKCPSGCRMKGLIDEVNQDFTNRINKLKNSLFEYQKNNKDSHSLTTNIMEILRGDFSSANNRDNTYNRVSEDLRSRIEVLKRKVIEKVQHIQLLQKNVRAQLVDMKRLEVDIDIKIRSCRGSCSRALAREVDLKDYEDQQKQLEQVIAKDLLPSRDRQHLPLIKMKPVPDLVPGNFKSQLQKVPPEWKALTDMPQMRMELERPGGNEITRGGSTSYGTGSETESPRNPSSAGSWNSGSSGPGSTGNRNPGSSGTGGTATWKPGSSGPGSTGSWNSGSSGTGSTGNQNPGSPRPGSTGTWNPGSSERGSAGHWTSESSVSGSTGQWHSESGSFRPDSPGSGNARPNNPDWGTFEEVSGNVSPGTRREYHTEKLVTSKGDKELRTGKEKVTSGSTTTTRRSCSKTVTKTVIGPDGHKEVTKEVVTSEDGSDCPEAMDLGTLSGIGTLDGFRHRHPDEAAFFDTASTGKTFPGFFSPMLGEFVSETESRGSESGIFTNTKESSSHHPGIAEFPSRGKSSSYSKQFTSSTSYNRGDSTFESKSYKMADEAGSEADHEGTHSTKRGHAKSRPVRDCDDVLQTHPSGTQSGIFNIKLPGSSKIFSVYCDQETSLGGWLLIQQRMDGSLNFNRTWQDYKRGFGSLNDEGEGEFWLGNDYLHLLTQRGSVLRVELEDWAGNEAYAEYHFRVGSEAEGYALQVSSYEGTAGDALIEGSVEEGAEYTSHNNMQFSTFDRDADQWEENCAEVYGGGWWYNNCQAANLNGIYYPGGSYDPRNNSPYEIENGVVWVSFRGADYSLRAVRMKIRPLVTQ
T1 sequence (P02675 45-491 partner): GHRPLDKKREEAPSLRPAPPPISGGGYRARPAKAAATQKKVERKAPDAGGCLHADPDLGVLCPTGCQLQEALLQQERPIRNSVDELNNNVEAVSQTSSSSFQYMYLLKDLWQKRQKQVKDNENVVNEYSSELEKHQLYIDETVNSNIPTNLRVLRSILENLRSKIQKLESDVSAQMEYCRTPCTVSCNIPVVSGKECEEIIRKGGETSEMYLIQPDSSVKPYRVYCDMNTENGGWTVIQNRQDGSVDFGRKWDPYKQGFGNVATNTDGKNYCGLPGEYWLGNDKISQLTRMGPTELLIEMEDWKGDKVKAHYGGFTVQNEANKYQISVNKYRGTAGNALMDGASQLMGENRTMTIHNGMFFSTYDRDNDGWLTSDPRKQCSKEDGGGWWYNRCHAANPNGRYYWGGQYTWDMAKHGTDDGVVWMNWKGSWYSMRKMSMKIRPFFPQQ
T1 sequence (P02679 27-453 partner): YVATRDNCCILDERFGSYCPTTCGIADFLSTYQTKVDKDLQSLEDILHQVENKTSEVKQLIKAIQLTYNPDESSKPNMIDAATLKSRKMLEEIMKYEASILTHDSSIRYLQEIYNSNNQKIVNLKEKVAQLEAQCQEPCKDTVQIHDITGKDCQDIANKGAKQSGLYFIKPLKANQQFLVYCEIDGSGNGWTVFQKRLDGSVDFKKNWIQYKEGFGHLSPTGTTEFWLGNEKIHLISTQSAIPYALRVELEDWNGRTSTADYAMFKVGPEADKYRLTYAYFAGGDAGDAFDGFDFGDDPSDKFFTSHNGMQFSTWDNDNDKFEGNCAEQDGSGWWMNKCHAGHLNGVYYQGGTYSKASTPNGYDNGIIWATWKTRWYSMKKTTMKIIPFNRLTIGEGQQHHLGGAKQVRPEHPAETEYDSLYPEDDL
Sequence of ADP-stimulated platelets (P08514 32-1039): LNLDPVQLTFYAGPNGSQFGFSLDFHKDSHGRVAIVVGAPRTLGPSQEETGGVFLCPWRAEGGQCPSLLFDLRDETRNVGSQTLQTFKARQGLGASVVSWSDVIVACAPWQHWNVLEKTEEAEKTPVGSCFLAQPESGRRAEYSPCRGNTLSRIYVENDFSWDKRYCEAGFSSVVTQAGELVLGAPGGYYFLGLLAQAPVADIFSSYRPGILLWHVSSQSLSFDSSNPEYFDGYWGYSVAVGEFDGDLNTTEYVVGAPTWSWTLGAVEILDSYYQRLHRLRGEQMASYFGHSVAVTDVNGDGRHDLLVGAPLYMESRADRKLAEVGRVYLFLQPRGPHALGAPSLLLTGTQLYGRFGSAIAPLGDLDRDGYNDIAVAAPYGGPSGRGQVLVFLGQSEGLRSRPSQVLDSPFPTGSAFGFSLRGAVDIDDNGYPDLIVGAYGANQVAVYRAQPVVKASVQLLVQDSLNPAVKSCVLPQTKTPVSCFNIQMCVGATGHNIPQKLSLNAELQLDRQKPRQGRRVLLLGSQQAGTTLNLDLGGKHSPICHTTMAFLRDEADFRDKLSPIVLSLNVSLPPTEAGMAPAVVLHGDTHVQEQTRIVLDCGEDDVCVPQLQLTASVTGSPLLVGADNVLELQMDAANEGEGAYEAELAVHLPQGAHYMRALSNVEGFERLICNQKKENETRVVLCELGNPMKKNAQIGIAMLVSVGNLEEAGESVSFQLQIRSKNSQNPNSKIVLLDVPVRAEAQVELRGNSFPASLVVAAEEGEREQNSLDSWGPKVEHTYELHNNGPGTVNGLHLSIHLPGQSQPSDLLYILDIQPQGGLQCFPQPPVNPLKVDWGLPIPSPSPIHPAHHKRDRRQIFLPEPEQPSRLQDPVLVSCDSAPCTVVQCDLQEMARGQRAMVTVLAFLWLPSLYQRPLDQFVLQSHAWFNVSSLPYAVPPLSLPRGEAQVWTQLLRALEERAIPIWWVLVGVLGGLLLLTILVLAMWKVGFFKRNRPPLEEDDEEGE
Sequence of ADP-stimulated platelets (P05106 27-788): as the sequence (P05106 27-788) above
Sequence of ADP-stimulated platelets (P02671 36-866 partner): as the sequence (P02671 36-866 partner) above
Sequence of ADP-stimulated platelets (P02675 45-491 partner): as the sequence (P02675 45-491 partner) above
Sequence of ADP-stimulated platelets (P02679 27-453 partner): as the sequence (P02679 27-453 partner) above

Compound | Extent of inhibition of fibrinogen binding to platelets (ADP-stimulated platelets) | Extent of inhibition of fibrinogen binding to endothelial cells (endothelial cells [1]) | IC50 (ADP-stimulated platelets) | Potency on endothelial cells relative to platelets (endothelial cells [1]; fibrinogen binding inhibition) | Inhibition Platelet aggregation (washed platelets) | Endothelial cell spreading (endothelial cells [2])
CC(C)C[C@H](NC(=O)[C@H](Cc1c[nH]cn1)NC(=O)[C@@H](N)Cc1c[nH]cn1)C(=O)NCC(=O)NCC(=O)N[C@@H](C)C(=O)N[C@@H](CCCCN)C(=O)N[C@@H](CCC(N)=O)C(=O)N[C@@H](C)C(=O)NCC(=O)N[C@@H](CC(=O)O)C(=O)N[C@H](C(=O)O)C(C)C [H12] (H-HHLGGAKQAGDV-OH; N-terminus assumed) | complete | only partially inhibited |  |  |  | 
CC(C)[C@H](NC(=O)[C@H](CC(=O)O)NC(=O)CNC(=O)[C@H](C)NC(=O)[C@H](CCC(N)=O)NC(=O)[C@@H](N)Cc1c[nH]cn1)C(=O)O [HQAGDV] (H-HQAGDV-OH; N-terminus assumed) |  |  | > 1000 µM | at least fivefold | 0% | + +
CC(C)[C@H](NC(=O)[C@H](CC(=O)O)NC(=O)CNC(=O)[C@H](C)NC(=O)[C@H](CCC(N)=O)NC(=O)[C@@H](N)CCCNC(=N)N)C(=O)O [RQAGDV] (H-RQAGDV-OH; N-terminus assumed) |  |  | > 1000 µM |  |  | 
CC(C)[C@H](NC(=O)[C@H](CC(=O)O)NC(=O)CNC(=O)[C@H](C)NC(=O)[C@H](CCC(N)=O)NC(=O)[C@H](CCCCN)NC(=O)[C@H](C)NC(=O)CNC(=O)CN)C(=O)O [G9] (H-GGAKQAGDV-OH; N-terminus assumed) | complete | only partially inhibited |  |  |  | 
